pIC50: −log10 of the molar value. Values joined by “and” are separate entries in the source; they are usually repeats but may differ in a detail not shown here. Identical values can stand only once. Like-named read-outs stand apart in the source and are kept apart here.
Experiments:
[1] = biological target: T1, PCSK9/LDLR interaction (His-tagged PCSK9, recombinant LDLR-AB domain) (Homo sapiens, UniProt Q8NBP7); experiment: In vitro ELISA binding assay (Circulex) for inhibition of the PCSK9/LDLR interaction; conditions: for IC50 for inhibition of the PCSK9/LDLR interaction, range in words: FIG. 4A
T1 construct: purchased Circulex
T1 sequence (Q8NBP7 153-692): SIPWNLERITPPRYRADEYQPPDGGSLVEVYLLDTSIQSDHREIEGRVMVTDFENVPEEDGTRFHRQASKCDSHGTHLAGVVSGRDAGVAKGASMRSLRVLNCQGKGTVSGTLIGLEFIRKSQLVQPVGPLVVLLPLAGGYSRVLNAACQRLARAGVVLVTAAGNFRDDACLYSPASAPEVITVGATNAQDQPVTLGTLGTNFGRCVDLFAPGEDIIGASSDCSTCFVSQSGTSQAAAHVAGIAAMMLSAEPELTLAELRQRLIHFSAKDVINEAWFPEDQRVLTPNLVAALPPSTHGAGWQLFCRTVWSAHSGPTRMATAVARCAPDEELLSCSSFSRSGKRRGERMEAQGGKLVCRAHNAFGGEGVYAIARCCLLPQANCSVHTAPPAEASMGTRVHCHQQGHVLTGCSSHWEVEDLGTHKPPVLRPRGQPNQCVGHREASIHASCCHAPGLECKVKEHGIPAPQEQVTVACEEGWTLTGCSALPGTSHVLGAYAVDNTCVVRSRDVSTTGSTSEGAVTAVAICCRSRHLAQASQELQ
T1 sequence (Q8NBP7 31-152 partner limits assumed): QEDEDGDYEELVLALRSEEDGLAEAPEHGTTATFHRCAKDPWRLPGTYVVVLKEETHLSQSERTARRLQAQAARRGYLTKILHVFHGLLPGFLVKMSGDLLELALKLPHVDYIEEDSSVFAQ
Procedure: FIG. 4A provides a graph of the effect of SBC-115,418, SBC-115,433, SBC-115,448, and SBC-115,462 on the PCSK9/LDLR interaction. An in vitro ELISA assay kit was utilized (Circulex). For screening inhibitors of the PCSK9/LDLR interaction, different concentrations (0.01 nM-100 μM) of selected compounds were incubated with His-tagged PCSK9 and then added to wells that were pre-coated with recombinant LDLR-AB domain. After incubation, the plate was washed and the amount of recombinant His-tagged PCSK9 was measured using the biotinylated anti-His-tag and horseradish peroxidase conjugated Streptavidin and quantitated using a BioTek Synergy™ 2 plate reader. The effect of each compound on the PCSK9 binding to the recombinant LDLR-AB domain was calculated.
FIG. 4B provides a graph of the effect of SBC-115,418 on the PCSK9/LDLR interaction under increased solubilization conditions (10% DMSO) (418s). An in vitro ELISA assay (Circulex) was utilized. Different concentrations ([…]-100 μM) of SBC-115,418 in DMSO were incubated with His-tagged PCSK9 and then added to wells that were pre-coated with recombinant LDLR-AB domain as described in FIG. 4A.
(§1) Testing of SBC-115,418 and analogs was performed in a binding assay to determine their ability to inhibit the PCSK9/LDLR interaction. SBC-115,418 inhibited the PCSK9/LDLR interaction with an IC50 in the sub-micro-molar range. Experimental details are provided hereinabove and in WO 2017/222953. […] Given the lipophilicity of lead compound SBC-115,418, a solubility study was undertaken to look at its effects on binding (FIG. 4B). An in vitro ELISA binding assay was performed at different concentrations (0.01 μM-100 μM) of SBC-115,418 under different solubilization conditions.

PCSK9 = experiment: Test for secreted PCSK9 (synthesis, processing and secretion); format: cell-based; conditions: in the cells or into the media
Source text: Experimental details are provided hereinabove and in WO 2017/222953.

LDLR = experiment: Cell-based assay for LDLR upregulation; conditions: compared to cells treated with same volume of DMSO
HepG2 cells = experiment: Uptake of fluorescent Dil-LDL in HepG2 cells; format: cell-based; conditions: 10 μM
Source text: FIG. 5 provides a graph of the effect of SBC-115,418, SBC-115,433, SBC-115,448, and SBC-115,462 on the uptake of fluorescent Dil-LDL in HepG2 Cells. The compounds were validated for their ability to increase uptake of Fluorescent Dil-LDL in HepG2 cells.

[2] = Lipophilicity and solubility of the compounds; format: physicochemical
Procedure: [formula] The size distribution of the nanoparticles in aqueous dispersions was determined using a Malvern zeta sizer (Malvern Instrumentation Co, Westborough, MA). 50 mg of the lyophilized nanoparticles were re-suspended in 2 mL of water. This nanoparticles solution was placed into a 3 mL, 4-sided, clear plastic cuvette, and measured directly. Shown are the HPLC chromatograms of SBC-115,418 used to construct the standard curve at different concentrations. Calibrator series of SBC-115,418 were prepared in DMSO by a 2-fold series dilution including 3.9, 7.8, 15.6, 31.5, 62.5, 125, and 250 μg/mL (left).
as §1

[3] = ELISA, read-out: in vitro inhibition of the PCSK9/LDLR interaction (IC50)

IC50 for inhibition of the PCSK9/LDLR interaction, range in words ([1]; ELISA)	pIC50 [1, 3]	pIC50 ([1]; increased solubilization conditions (10% DMSO), FIG. 4B, read-out: IC50 of in vitro binding under improved solubility conditions)	solubility ([2]; 80% acetonitrile, organic solvent or mixture)	logP [2]	solubility relative to SBC-115,418 [2]	SMILES	effect on PCSK9 synthesis, processing and secretion (PCSK9)	level of LDLR versus DMSO control (LDLR)	Fluorescent Dil-LDL uptake (HepG2 cells)
sub-micro-molar	> 5.30	7.30	< 100 µg/mL	–	–	COc1ccc2oc(C(=O)Nc3ccc(C(=O)Nc4ccc(-c5nc6ccccc6o5)cc4)cc3)c(C)c2c1 [SBC-115,418]	no significant effect	significant upregulation	significant increase
low micro-molar	> 5.30	–	–	–	–	COc1ccc2oc(C(=O)Nc3ccc(C(=O)Nc4ccc(-c5ncco5)cc4)cc3)c(C)c2c1 [SBC-115,462]	no significant effect	significant upregulation	significant increase
sub-micro-molar	> 5.30	–	–	–	–	O=C(Nc1ccc(-c2ncco2)cc1)c1ccc(NC(=O)c2cc3ccccc3o2)cc1 [SBC-115,433]	no significant effect	significant upregulation	increase
sub-micro-molar	> 5.30 and 6.72	–	–	4.5	increased solubility	COc1ccc2oc(C(=O)Nc3ccc(C(=O)Nc4ccc(-c5nc6ccccc6[nH]5)cc4)cc3)c(C)c2c1 [SBC-115,477]	no significant effect	upregulation	–
low micro-molar	> 5.30	–	–	–	–	O=C(Nc1ccc(C(=O)Nc2ccc(-c3ncco3)cc2)c(F)c1)c1cc2ccccc2o1 [SBC-115,448]	no significant effect	significant upregulation	increase

From patent publication US12274693B2, “Anti-proprotein convertase subtilisin kexin type 9 (anti-PCSK9) nano-formulation of compounds and methods of using the same” (SHIFA BIOMEDICAL CORPORATION, priority 2018, dated 2025)
